Data: ChEMBL document CHEMBL4732150 (J Med Chem, 2021)

How the values were obtained:
[1] = Intrinsic clearance in Beagle dog liver microsomes preincubated for 10 mins under shaking condition followed by NADPH generating system addition and measured up to 60 mins by LC-MS/MS analysis; assay type: ADME, Canis lupus familiaris, Microsome; details: 1 h, time <=70 min
[2] = Drug metabolism in CD1 mouse liver microsomes assessed as 3,3-dideuterio-N-[2-(2-dimethylaminoethylamino)-4-methoxy-5-[[4-[1-(trideuteriomethyl)indol-3-yl]pyrimidin-2-yl]amino]phenyl]prop-2-enamide metabolite formation preincubated for 10 mins under shaking condition followed by NADPH generating system addition and measured up to 60 mins by LC-MS/MS analysis; assay type: ADME, Microsome; details: 1 h, time <=70 min
[3] = Intrinsic clearance in CD1 mouse liver microsomes preincubated for 10 mins under shaking condition followed by NADPH generating system addition and measured up to 60 mins by LC-MS/MS analysis; assay type: ADME, Microsome; details: 1 h, time <=70 min
in vivo [4] = details: Sprague-Dawley, rat, plasma, po, 6 mg/kg
[5] = Drug metabolism in Beagle dog liver microsomes assessed as 3,3-dideuterio-N-[4-methoxy-2-[methyl-[2-(methylamino)ethyl]amino]-5-[[4-[1-(trideuteriomethyl)indol-3-yl]pyrimidin-2-yl]amino]phenyl]prop-2-enamide metabolite formation preincubated for 10 mins under shaking condition followed by NADPH generating system addition and measured up to 60 mins by LC-MS/MS analysis; assay type: ADME, Canis lupus familiaris, Microsome; details: 1 h, time <=70 min
[6] = Drug metabolism in Sprague-Dawley rat liver microsomes assessed as 3,3-dideuterio-N-[4-methoxy-2-(methylamino)-5-[[4-[1-(trideuteriomethyl)indol-3-yl]pyrimidin-2-yl]amino]phenyl]prop-2-enamide metabolite formation preincubated for 10 mins under shaking condition followed by NADPH generating system addition and measured up to 60 mins by LC-MS/MS analysis; assay type: ADME, Microsome; details: 1 h, time <=70 min
[7] = Oral bioavailability in Sprague-Dawley rat at 2 mg/kg, IG administered as single dose and measured upto 24 hrs by LC-MS/MS analysis; assay type: ADME, organism-based; details: in vivo
[8] = Intrinsic clearance in human liver microsomes preincubated for 10 mins under shaking condition followed by NADPH generating system addition and measured up to 60 mins by LC-MS/MS analysis; assay type: ADME, Microsome; details: 1 h, time <=70 min
Cytochrome P450 2D6 = Cytochrome P450 2D6 (Homo sapiens, UniProt P10635); assay: Inhibition of CYP2D6 in human liver microsomes using dextromethorphan as substrate preincubated for 10 mins in presence of NADPH generating system followed by substrate addition and measured after 20 mins by LC-MS/MS analysis; assay type: ADME
[9] = Cmax in Sprague-Dawley rat at 6 mg/kg/day, IG administered for 7 consecutive days by LC-MS/MS analysis; assay type: ADME, organism-based; set-up: route […], time 7 day, dose 6 mg/kg/day; details: in vivo, po
[10] = Tmax in Sprague-Dawley rat at 12 mg/kg, IG administered as single dose and measured upto 24 hrs by LC-MS/MS analysis; assay type: ADME, organism-based; details: in vivo, po
[11] = Drug metabolism in cynomolgus monkey liver microsomes assessed as 3,3-dideuterio-N-[2-(2-dimethylaminoethylamino)-4-methoxy-5-[[4-[1-(trideuteriomethyl)indol-3-yl]pyrimidin-2-yl]amino]phenyl]prop-2-enamide metabolite formation preincubated for 10 mins under shaking condition followed by NADPH generating system addition and measured up to 60 mins by LC-MS/MS analysis; assay type: ADME, Macaca fascicularis, Microsome; details: 1 h, time <=70 min
[12] = Tmax in Sprague-Dawley rat assessed as AZ5104-D2 at 6 mg/kg/day, IG administered for 7 consecutive days by LC-MS/MS analysis; assay type: ADME, organism-based; details: in vivo, po, 168 h, time 7 day
in vivo [13] = details: Sprague-Dawley, rat, po, 12 mg/kg
[14] = Cmax in Sprague-Dawley rat at 6 mg/kg/day, IG and measured on day 7 by LC-MS/MS analysis; assay type: ADME, organism-based; set-up: route […], dose 6 mg/kg/day, time 7 day; details: in vivo, po
[15] = Intrinsic clearance in cynomolgus monkey liver microsomes preincubated for 10 mins under shaking condition followed by NADPH generating system addition and measured up to 60 mins by LC-MS/MS analysis; assay type: ADME, Macaca fascicularis, Microsome; details: 1 h, time <=70 min
[16] = Half life in Beagle dog liver microsomes preincubated for 10 mins under shaking condition followed by NADPH generating system addition and measured up to 60 mins by LC-MS/MS analysis
[17] = Drug metabolism in CD1 mouse liver microsomes assessed as 3,3-dideuterio-N-[4-methoxy-2-(methylamino)-5-[[4-[1-(trideuteriomethyl)indol-3-yl]pyrimidin-2-yl]amino]phenyl]prop-2-enamide metabolite formation preincubated for 10 mins under shaking condition followed by NADPH generating system addition and measured up to 60 mins by LC-MS/MS analysis; assay type: ADME, Microsome; details: 1 h, time <=70 min
Cytochrome P450 1A2 = molecular target: T1, Cytochrome P450 1A2 (Homo sapiens, UniProt P05177); assay: Inhibition of CYP1A2 in human liver microsomes using phenacetin as substrate preincubated for 10 mins in presence of NADPH generating system followed by substrate addition and measured after 3 mins by LC-MS/MS analysis; assay type: ADME
T1 sequence (P05177 whole entry): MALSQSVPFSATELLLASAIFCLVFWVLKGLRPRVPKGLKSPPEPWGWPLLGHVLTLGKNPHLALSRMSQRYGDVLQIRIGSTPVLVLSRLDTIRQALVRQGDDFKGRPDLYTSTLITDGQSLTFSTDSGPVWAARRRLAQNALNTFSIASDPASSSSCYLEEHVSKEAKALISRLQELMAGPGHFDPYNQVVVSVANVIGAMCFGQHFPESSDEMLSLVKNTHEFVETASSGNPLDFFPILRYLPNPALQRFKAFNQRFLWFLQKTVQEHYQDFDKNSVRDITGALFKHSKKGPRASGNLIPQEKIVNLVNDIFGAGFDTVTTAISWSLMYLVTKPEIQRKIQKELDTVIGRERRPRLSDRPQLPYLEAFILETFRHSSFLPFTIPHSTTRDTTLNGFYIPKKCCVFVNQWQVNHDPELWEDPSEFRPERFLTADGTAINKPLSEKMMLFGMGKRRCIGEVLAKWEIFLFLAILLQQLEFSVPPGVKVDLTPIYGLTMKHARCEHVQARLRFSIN

[18] = Drug metabolism in Beagle dog liver microsomes assessed as 3,3-dideuterio-N-[2-(2-dimethylaminoethylamino)-4-methoxy-5-[[4-[1-(trideuteriomethyl)indol-3-yl]pyrimidin-2-yl]amino]phenyl]prop-2-enamide metabolite formation preincubated for 10 mins under shaking condition followed by NADPH generating system addition and measured up to 60 mins by LC-MS/MS analysis; assay type: ADME, Canis lupus familiaris, Microsome; details: 1 h, time <=70 min
[19] = Cmax in Sprague-Dawley rat at 2 mg/kg, iv administered as single dose and measured upto 24 hrs by LC-MS/MS analysis; assay type: ADME, organism-based; set-up: route intravenous, dose 2 mg/kg, time <=24; details: in vivo
[20] = Oral bioavailability in Sprague-Dawley rat at 6 mg/kg/day, IG administered for 7 consecutive days by LC-MS/MS analysis; assay type: ADME, organism-based; details: in vivo, time 7 day
[21] = Tmax in Sprague-Dawley rat at 6 mg/kg/day, IG administered for 7 consecutive days by LC-MS/MS analysis; assay type: ADME, organism-based; details: in vivo, po, time 7 day
Cytochrome P450 2C19 = Cytochrome P450 2C19 (Homo sapiens, UniProt P33261); assay: Inhibition of CYP2C19 in human liver microsomes using S-mephenytoin as substrate preincubated for 10 mins in presence of NADPH generating system followed by substrate addition and measured after 20 mins by LC-MS/MS analysis; assay type: ADME
[22] = Half life in Sprague-Dawley rat liver microsomes preincubated for 10 mins under shaking condition followed by NADPH generating system addition and measured up to 20 mins by LC-MS/MS analysis

Cytochrome P450 2C19, sequence (P33261 whole entry): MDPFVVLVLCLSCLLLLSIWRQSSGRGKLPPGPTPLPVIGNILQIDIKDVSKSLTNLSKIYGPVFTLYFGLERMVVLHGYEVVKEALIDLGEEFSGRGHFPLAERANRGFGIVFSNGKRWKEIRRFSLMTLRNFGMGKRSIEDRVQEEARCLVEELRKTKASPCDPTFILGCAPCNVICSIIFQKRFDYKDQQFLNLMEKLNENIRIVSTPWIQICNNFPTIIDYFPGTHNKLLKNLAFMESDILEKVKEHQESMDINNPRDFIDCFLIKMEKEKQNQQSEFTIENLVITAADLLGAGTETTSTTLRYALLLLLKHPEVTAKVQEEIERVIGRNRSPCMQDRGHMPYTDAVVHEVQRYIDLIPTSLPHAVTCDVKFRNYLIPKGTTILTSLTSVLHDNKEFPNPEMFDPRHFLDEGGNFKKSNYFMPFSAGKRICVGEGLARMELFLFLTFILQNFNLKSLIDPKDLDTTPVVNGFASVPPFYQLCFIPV
Cytochrome P450 2D6, sequence (P10635 whole entry): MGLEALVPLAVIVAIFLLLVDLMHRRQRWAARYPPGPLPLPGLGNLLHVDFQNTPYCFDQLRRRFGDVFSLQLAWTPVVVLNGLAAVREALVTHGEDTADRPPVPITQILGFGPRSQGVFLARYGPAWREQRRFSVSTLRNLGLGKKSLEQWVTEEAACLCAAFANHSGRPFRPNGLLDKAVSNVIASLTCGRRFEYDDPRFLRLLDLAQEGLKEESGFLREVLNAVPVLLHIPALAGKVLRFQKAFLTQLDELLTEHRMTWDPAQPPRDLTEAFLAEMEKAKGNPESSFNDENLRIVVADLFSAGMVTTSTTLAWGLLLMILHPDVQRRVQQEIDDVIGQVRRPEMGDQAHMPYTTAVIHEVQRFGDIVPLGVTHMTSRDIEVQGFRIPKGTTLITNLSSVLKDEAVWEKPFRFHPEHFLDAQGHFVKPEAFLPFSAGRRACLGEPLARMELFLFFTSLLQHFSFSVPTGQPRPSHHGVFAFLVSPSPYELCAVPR

## CS(=O)(=O)O.[2H]C([2H])=CC(=O)Nc1cc(Nc2nccc(-c3cn(C([2H])([2H])[2H])c4ccccc34)n2)c(OC)cc1N(C)CCN(C)C
[1]
  CLint: 61.3 µL/min/mg
[2]
  Drug metabolism: Metabolite_Detected
[3]
  CLint: 58.6 µL/min/mg
In vivo [4]
  half-life at 168 h: 3.27 h
[5]
  Drug metabolism: Metabolite_Detected
[6]
  Drug metabolism: Metabolite_Detected
[7]
  bioavailability: 41.2%
[8]
  CLint: 9.6 µL/min/mg
Cytochrome P450 2D6
  IC50: > 50 µM
[9]
  Cmax: 113 nM
[10]
  Tmax: 5 h
[11]
  Drug metabolism: Metabolite_Detected
[12]
  Tmax: 6.8 h
In vivo [13]
  CL/F at 24 h: 248 mL/min/kg
[14]
  Cmax: 180 nM
[15]
  CLint: 54.2 µL/min/mg
[16]
  half-life at 1 h: 0.377 h
[17]
  Drug metabolism: Metabolite_Detected
Cytochrome P450 1A2
  IC50: 39.8 µM
[18]
  Drug metabolism: Metabolite_Detected
[19]
  Cmax: 277 nM
[20]
  bioavailability: 29.6%
[21]
  Tmax: 4.67 h
Cytochrome P450 2C19
  IC50: 43 µM
[22]
  half-life at 20 min: 0.577 h
